Reference: patent US5219841A, “Treatment of arrhythmia by administration of Ap4 A” (Fujirebio, Inc., priority 1989, dated 1993)
Entries after “also recorded” stand apart in the source; their conditions may differ.

Experiments:
platelet aggregation = assay: Platelet aggregation by the drug itself in absence of ADP; assay type: cell-based, rabbit
[1] = tested on: ouabain-induced cardiac arrhythmia; assay: Ouabain-induced arrhythmia model; assay type: in vivo, guinea pig; conditions: for antiarrhythmic effect: onset of P-P interval prolongation, T-P overlapping, ventricular arrhythmia, ventricular fibrillation and cardiac arrest: i.v. infusion over 5 min: ATP 10 or 30 mg/kg, Ap4 A 30 mg/kg, disopyramide 5 mg/kg, ouabain 7 μg/kg/min
Protocol: With a guinea pig (b.w. 450 g) placed under urethane anesthesia (1.1 g/kg), its femoral vein, jugular vein and carotid artery were cannulated. Ap4 A, ATP or disopyramide was injected into the femoral vein and ouabain into the jugular vein through each cannula, while the carotid artery was utilized for a blood pressure monitoring. Changes associated with the administration of the drug were assessed by monitoring electrocardiogram (ECG), blood pressure, mean blood pressure and heart rate (Nihon Kohden Co.; Models AB620G, AP601G and AT601G). ECG was recorded in accordance with the lead II.
Ouabain-induced cardiac arrhythmia model was prepared by continuous infusion of ouabain at a rate of 7 μg/kg/min via the jugular vein. Each drug was administered by intravenous infusion over a period of 5 minutes at the following dose: ATP, 10 or 30 mg/kg; Ap4 A, 30 mg/kg; and disopyramide, 5 mg/kg. The drug was administered simultaneously with the infusion of ouabain. The antiarrhythmic effect of the drug tested was assessed in terms of the total dose of ouabain given until onset of each of the following parameters: P-P interval prolongation, T-P overlapping, ventricular arrhythmia, ventricular fibrillation and cardiac arrest.

guinea pig right atrium = assay: Effect on heart rate of isolated guinea pig right atrium; conditions: for change of heart rate (bradycardic effect): single dose, 10^-7 to 10^-4 M, KH solution, 31° C.
Protocol: A guinea pig (b.w. 450 g) was stunned and was immediately removed its heart to excise the right atrium therefrom. The right atrium was then suspended in a Magnus tube (30 ml) filled with Krebs-Henseleit (KH) solution which was maintained at 31° C. constantly aerating with a mixture of 95% O2 --5% CO2 therein. After the KH solution was changed with the fresh one at 15-minutes intervals and the heart rate of the right atrium was stabilized in 60-90 minutes, Ap4 A or ATP which was prepared at different concentrations was added to the KH solution in a single dose to determine the change of heart rate. Drug concentrations of 10^-4, 10^-5, 10^-6 and 10^-7 M were employed in this experiment. The heart rate was determined with a cardiotachometer (Nihon Kohden Co.; Model AT601G; Japan) and an isometric converter (Nihon Kohden Co.; Model TB-651T), with a 1-g weight load.

[2] = Fujii and Nakamura 1977; cited from earlier work
[3] = tested on: adrenaline-induced cardiac arrhythmia; assay: Adrenaline-induced arrhythmia model; assay type: in vivo, guinea pig; conditions: for incidence of extrasystole: 10 mg/kg/5min i.v., adrenaline 10 μg/kg, control value 39%; for antiarrhythmic effect (reduction of incidence of extrasystole): i.v. infusion over 5 min: ATP 3 or 10 mg/kg, Ap4 A 3 or 10 mg/kg, propranolol 1 mg/kg
Protocol: With a guinea pig (b.w. 450 g) placed under urethane anesthesia (1.1 g/kg), its femoral vein, jugular vein and carotid artery were cannulated. Ap4 A, ATP or propranolol was injected into the femoral vein and adrenaline into the jugular vein through each cannula, while the carotid artery was utilized for a blood pressure monitoring. Changes associated with the administration of the drug were monitored in the same manner as above (B), and ECG was recorded in accordance with the lead II.
Adrenaline-induced cardiac arrhythmia model was prepared by injecting adrenaline (10 μg/kg) into the jugular vein over 5 seconds. Each drug was administered by intravenous infusion over a period of 5 minutes at the following dose: ATP, 3 or 10 mg/kg; Ap4 A, 3 or 10 mg/kg; propranolol, 1 mg/kg. Adrenaline was administered in a single dose 4 minutes after administration of the drug tested. The grading of arrhythmia was assessed in terms of the incidence of extrasystole.

arrhythmia = conditions: cited from earlier work; for antiarrhythmic activity: Somlo 1955, Komor and Garas 1955
hepatocytes = conditions: Rapaport and Zamecnick 1976; cited from earlier work
[4] = Half lethal dose, Lichfield-Wilcoxon method; conditions: in vivo, iv, rat
Source text: Ap4 A is a novel type of nucleotide discovered in human platelets in a recent year and has the following chemical structure: [drawing 1] The active ingredient Ap4 A of the pharmaceutical composition according to the present invention is thus preferably in a form of a pharmaceutically acceptable salt thereof such as sodium salt, or it may be in a form of free acid thereof. Ap4 A can be produced by a conventional organic synthesis or by an enzymatic synthesis with, for example, leucyl tRNA synthetase derived from thermophilic Bacillus stearothermoohillus (Japanese Patent Application Laid-Open (KOKAI) No. 62-278992; U.S. Pat. NO. 4886749; EP-A-247819), using ATP as the starting material in either method. […] J. Physiol., 254, 828-832 (1988)].

guinea pig heart = assay: Coronary vasodilative effect, Langendorff perfusion of isolated heart
Protocol: An experiment was performed by a modification of the method of Aronson and Serlick [Toxicol. Appl. Pharmac., 38, 479-488 (1976) and 39, 157-176 (1977); Biochem. Pharmac. 26, 2297-2305 (1977)]. The guinea pig heart removed was started perfusing at the origin of the aorta by the Langendorff perfusion method. Perfusion was carried out at 37° C. and 14 ml/min of flow rate with a peristalic pump (TAIYO TYPE 1500N; Japan) in Krebs-Henseleit solution (KH: NaCl, 118 mM; phosphate, 1.2 mM; NaHCO3, 25 mM; glucose, 10 mM; KCl, 4.7 mM; CaCl2, 2.5 mM; and MgSO4, 1.2 mM; pH 7.4; bubbling with 95% O2 - 5% CO2). After the initiation of the perfusion, an incision was made in the left auricle and a cannula was inserted into the left ventricle via the left atrium to measure the left ventricular pressure with a pressure transducer (Nihon Kohden Co.; Model TP-200T). The differential value of the left ventricular pressure (dp/dt) was measured with a cardiotachometer (Nihon Kohden Co.; Model AT-601G). The perfusion pressure was determined with a pressure transducer connected to the aortic cannula. Ap4 A was dissolved in KH at various concentrations and administered to the perfusion system in a single dose of 1-100 μg/0.1 ml/5 sec or by a continuous infusion of 1-100 μg/5ml/15 min.

[5] = tested on: adenosine diphosphate (ADP)-stimulated human platelet aggregation; conditions: Luthje and Ogiluie 1984; cited from earlier work
rabbit mesenteric artery = conditions: Busse et al. 1988; cited from earlier work
[6] = tested on: baby hamster kidney cells; conditions: Grummt 1978; cited from earlier work
[7] = tested on: ADP-induced platelet aggregation; assay: ADP-induced platelet aggregation in platelet-rich plasma; assay type: cell-based, rabbit; conditions: ADP 5 μM
Protocol: Blood was collected from the carotid artery of an unanesthetized rabbit into a syringe containing one volume of 3.8% sodium citrate per nine volumes of blood. The citrated blood was centrifuged at 1100 rpm for 15 minutes, and the supernatant was obtained as platelet-rich plasma (PRP). To 200 μl of PRP in an aggregometer, 10 μl of ATP or Ap4 A solution was added and the mixture was incubated at 37° C. for 10 minutes, followed by addition of 10 μl of 0.1 mM ADP solution (final concentration: 5μM) to induce and measure the aggregation of platelets. Results obtained for ATP are shown in FIG. 5A and those for Ap4 A in FIG. 5B.

[8] = 3×10^-5 M or more, absence of ADP
[9] = single dose 1-100 μg/0.1 ml/5 sec

For `Nc1ncnc2c1ncn2[C@@H]1O[C@H](COP(=O)(O)OP(=O)(O)OP(=O)(O)O)[C@@H](O)[C@H]1O` [ATP, Adenosine 5'-triphosphate, reference compound], the “platelet aggregation by the drug itself” value (platelet aggregation; [8]) was “caused a dose-dependent aggregation of platelets”, the minimal effective concentration (platelet aggregation; Oryctolagus cuniculus, Platelet, absence of ADP, read-out: concentration causing dose-dependent aggregation of platelets) was no less than 30 µM and the platelet-aggregating activity (platelet aggregation; in words, found by the inventors) was “has platelet-aggregating activity”. For the same compound, the “antiarrhythmic effect: onset of P-P interval prolongation, T-P overlapping, ventricular arrhythmia, ventricular fibrillation and cardiac arrest” value [1] was “has an antiarrhythmic activity; also recorded: inhibited all these parameters”, the “change of heart rate (bradycardic effect)” value (guinea pig right atrium) was “reduced the heart rate with a dose-dependency; also recorded: decreased the atrial heart rate with a dose-dependency” and the “vasodilation and other pharmacological effects” value [2] was “vasodilation; also recorded: enhancement of in vivo metabolic activity; also recorded: increase in muscle contraction; also recorded: rise of efficiency of the neural transmission”. The incidence of extrasystole [3] was 5.3%, the “antiarrhythmic effect (reduction of incidence of extrasystole)” value [3] was “reduced the incidence of extrasystole with a dose-dependency; also recorded: dose-dependent reduction of the incidence of extrasystole” and the antiarrhythmic activity (arrhythmia) was “possess the antiarrhythmic activity”. For the same compound, the “effect on paroxysmal supraventricular tachycardia” value (arrhythmia; clinical, Otsuka et al. 1986) was “successful arrest of the paroxysmal supraventricular tachycardia; also recorded: efficacy against the paroxysmal supraventricular tachycardia which is insusceptible to other antiarrhythmic drugs such as verapamil, digoxin and ajimaline”.
For `Nc1ncnc2c1ncn2[C@@H]1O[C@H](COP(=O)(O)OP(=O)(O)OP(=O)(O)OP(=O)(O)OC[C@H]2O[C@@H](n3cnc4c(N)ncnc43)[C@H](O)[C@@H]2O)[C@@H](O)[C@H]1O` [Ap4 A, diadenosine 5',5'''-P^1,P^4 -tetraphosphate], the growth of hepatocytes (hepatocytes) is listed as “promotion of the growth of hepatocytes”, the “platelet aggregation by the drug itself” value (platelet aggregation; [8]) is listed as “did not cause platelet aggregation at all” and the “platelet aggregation by the drug itself” value (platelet aggregation; even at 3×10^-4 M) is listed as “no activity of platelet aggregation; also recorded: no effect of the platelet aggregation”. The LD50 [4] was 102 mg/kg, the “perfusion pressure and left ventricular pressure” value (guinea pig heart; continuous infusion 1-100 μg/5ml/15 min) was “the perfusion pressure and the left ventricular pressure decreased depending on the dose of Ap4 A” and the “dose showing coronary vasodilative effect without affecting heart rate or left ventricular pressure” value (guinea pig heart; e.g.) was 1 µg. The heart rate (guinea pig heart; [9]) was “marked decrease of heart rate”, the left ventricular pressure (guinea pig heart; [9]) was “fell transiently after administration and subsequently it was elevated” and the perfusion pressure (guinea pig heart; [9]) was “dose-dependent fall of perfusion pressure; also recorded: observed from the lowest dose of Ap4 A”. The “perfusion pressure (coronary vasodilative activity)” value (guinea pig heart; single or continuous dose) was “the perfusion pressure decreased depending on the dose”, the “antiarrhythmic effect compared with ATP” value ([1]; 30 mg/kg i.v., same dose of ATP) was “practically the same as that of ATP, or slightly lower; also recorded: virtually comparable with or slightly inferior to that of ATP” and the “antiarrhythmic effect: onset of P-P interval prolongation, T-P overlapping, ventricular arrhythmia, ventricular fibrillation and cardiac arrest” value [1] was “inhibited the onsets of such parameters as P-P interval prolongation, T-P overlapping, ventricular arrhythmia, ventricular fibrillation and cardiac arrest; also recorded: inhibited all these parameters”. For the same compound, the “effect on ADP-stimulated human platelet aggregation” value [5] was “inhibitory effect”, the vasodilative action (rabbit mesenteric artery) was “vasodilative action” and the “relative potency vs ATP (change of heart rate)” value (guinea pig right atrium; 10^-4 M) was 2.1 -fold. For the same compound, the “relative potency vs ATP (change of heart rate)” value (guinea pig right atrium; 10^-5 M) was 1.5 -fold, the “relative potency vs ATP (change of heart rate)” value (guinea pig right atrium; 10^-6 M) was 1.5 -fold and the “potency compared with ATP (percent change of heart rate)” value (guinea pig right atrium; in words) was “prone to be more potent than ATP; also recorded: tends to be greater than that of ATP”. For the same compound, the “change of heart rate (bradycardic effect)” value (guinea pig right atrium) was “reduced the heart rate with a dose-dependency; also recorded: decreased the atrial heart rate with a dose-dependency”, the incidence of extrasystole [3] was 8.0% and the “antiarrhythmic effect (reduction of incidence of extrasystole)” value [3] was “reduced the incidence of extrasystole with a dose-dependency; also recorded: dose-dependent reduction of the incidence of extrasystole”. The “antiarrhythmic effect compared with ATP” value ([3]; i.v., incidence of extrasystole) was “somewhat inferior to that of ATP; also recorded: somewhat weaker than that of ATP”, the DNA synthesis [6] was “enhancement of DNA synthesis” and the “inhibition of ADP-induced platelet aggregation” value ([7]; 3×10^-5 M to 3×10^-4 M, in words) was “markedly inhibited ADP-induced platelet aggregation with a dose-dependency; also recorded: inhibited by Ap4 A with a dose-dependency”. It also gave an inhibition at 300 µM ([7]; Oryctolagus cuniculus, Platelet, 3×10^-4 M, rabbit PRP, 37° C., 10 min preincubation, vs control) of 76% and an inhibition at 30 µM ([7]; Oryctolagus cuniculus, Platelet, 3×10^-5 M, rabbit PRP, 37° C., 10 min preincubation, vs control) of 21%.
In the case of `Nc1ncnc2c1ncn2[C@@H]1O[C@H](CO)[C@@H](O)[C@H]1O` [adenosine], the antiarrhythmic activity (arrhythmia) is listed as “possess the antiarrhythmic activity”.
With `CC(C)N(CCC(C(N)=O)(c1ccccc1)c1ccccn1)C(C)C` (stereo not drawn) [disopyramide, reference compound] the “antiarrhythmic effect: onset of P-P interval prolongation, T-P overlapping, ventricular arrhythmia, ventricular fibrillation and cardiac arrest” value [1] was “has an antiarrhythmic activity; also recorded: inhibited all these parameters”.
For `CC(C)NCC(O)COc1cccc2ccccc12` (stereo not drawn) [propranolol, reference compound], the “antiarrhythmic effect (reduction of incidence of extrasystole)” value [3] was “reduced the incidence of extrasystole with a dose-dependency; also recorded: dose-dependent reduction of the incidence of extrasystole”.
